As a reminder, the IC50 is the concentration that gives 50% inhibition.

Each structure is given as a SMILES string. Read-outs that look alike come from different tables or passages of the source. A value given as a limit tells only on which side of the number the result lay.

In this assay the target is recombinant human BACE-1 protein (Homo sapiens (Human), UniProt P56817). Nature of the assay: Measurement of Inhibition of β-Secretase Activity. The assay is classed as biochemical. Conditions: 3 h at 30° C., pH5.0, read-out: IC50 value. Here is the method:
Zero point five μL of the test compounds (dissolved in N,N′-dimethylsulfoxide) were incubated with 48.5 μL of the fluorescence-quenched peptide substrate solution (Biotin-XSEVNLDAEFRHDSGC-Eu:X=ε-amino-n-capronic acid, Eu=Europium cryptate) and 1 μL of recombinant human BACE-1 protein (R&D systems) for 3 h at 30° C. in the 96 well half-area plate (black color plate, Costar). The substrate peptide was synthesized by reacting with Biotin-XSEVNLDAEFRHDSGC (Peptide Institute) and Cryptate TBPCOOH mono SMP (CIS bio international). […] The enzymatic reaction was performed in sodium acetate buffer (50 mM sodium acetate (pH5.0), 0.008% Triton X-100). After the reaction, a 50 μL of 8.0 μg/mL Streptavidin-XL665 (CIS bio international) dissolved in phosphate buffer (150 mM K2HPO4—KH2PO4 (pH 7.0), 0.008% Triton X-100, 0.8 M KF) was add to each well and incubated for 1 h at 30° C.

Setting [1] is: fluorescence-quenched peptide substrate 18 nM, BACE-1 7.4 nM.

Sequence of recombinant human BACE-1 protein (P56817 46-501): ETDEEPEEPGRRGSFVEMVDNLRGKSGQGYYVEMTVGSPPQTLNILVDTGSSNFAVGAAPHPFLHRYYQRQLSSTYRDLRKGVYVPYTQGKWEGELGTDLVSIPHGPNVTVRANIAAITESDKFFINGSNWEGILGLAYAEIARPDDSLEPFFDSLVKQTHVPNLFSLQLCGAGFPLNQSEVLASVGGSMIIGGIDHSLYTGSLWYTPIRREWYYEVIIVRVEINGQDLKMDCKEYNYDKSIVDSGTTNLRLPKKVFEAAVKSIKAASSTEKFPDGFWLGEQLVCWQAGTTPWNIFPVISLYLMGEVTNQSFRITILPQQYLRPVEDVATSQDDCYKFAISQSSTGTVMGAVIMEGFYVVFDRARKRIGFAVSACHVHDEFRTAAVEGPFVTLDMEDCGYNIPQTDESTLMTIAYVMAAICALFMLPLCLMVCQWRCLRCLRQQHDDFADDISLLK

With `CC1(c2cccc(NC(=O)c3ccccn3)c2)CCSC(N)=N1` (centres unmarked) [Compound 352], the IC50 under setting [1] is under 100 µM.
Regarding `CNc1nc(OC)cnc1C(=O)Nc1cccc(C2(C)CCSC(N)=N2)c1` (centres unmarked) [Compound 353], the IC50 under setting [1] is under 100 µM.
On the same count and under the same terms, to `CC1(c2cccc(NCc3ccccc3)c2)CCSC(N)=N1` (centres unmarked) [Compound 357] belongs under 100 µM.
Same read-out and setting: the result for `Cn1nc(C(=O)Nc2cccc(C3(C)CCSC(N)=N3)c2)cc1CO` (centres unmarked) [Compound 358] reads under 100 µM; that for `CC(=O)NCc1cccc(C2(C)CCSC(N)=N2)c1` (centres unmarked) [Compound 360], under 100 µM; that for `CC1(c2cccc(NC(=O)C(=O)Nc3ccc(Cl)cc3)c2)CCSC(N)=N1` (centres unmarked) [Compound 361], under 100 µM.
Same read-out and setting: to `CC1(c2ccc(C(=O)NCc3cccc(Cl)c3)cc2)CCSC(N)=N1` (centres unmarked) [Compound 363] belongs under 100 µM; to `CC1(c2cccc(NC(=O)c3ccc(Cl)c(Cl)c3)c2)CCSC(N)=N1` (centres unmarked) [Compound 369], under 100 µM; to `CC1(c2cc(Br)cc(NC(=O)c3ccco3)c2)CCSC(N)=N1` (centres unmarked) [Compound 370], under 100 µM.
Turning to `Cc1ccc(F)c(C(=O)Nc2cccc(C3(C)CCSC(N)=N3)c2)c1` (centres unmarked) [Compound 373], under setting [1], the half-inhibitory concentration (IC50) is under 100 µM.
On to `CC1(c2cccc(NC(=O)c3ccc(Cl)cc3F)c2)CCSC(N)=N1` (centres unmarked) [Compound 378], for which, under setting [1], the IC50 is under 100 µM.
Still for that read-out and setting: to `CC1(c2cccc(/C=N/Oc3ccccc3)c2)CCSC(N)=N1` (centres unmarked) [Compound 383] belongs under 100 µM; to `CC1(c2cccc(NCc3cccnc3)c2)CCSC(N)=N1` (centres unmarked) [Compound 389], under 100 µM; to `CC1(c2cccc(OCC(=O)Nc3ccc4ccccc4n3)c2)CCSC(N)=N1` (centres unmarked) [Compound 390], under 100 µM.
Still for that read-out and setting: to `CC1(c2cccc(NC(=O)c3ccc(NCc4ccncc4)cn3)c2)CCSC(N)=N1` (centres unmarked) [Compound 393] belongs under 100 µM.
With `COCc1cc(NC(=O)c2ccc(Cl)cc2)cc(C2(C)CCSC(N)=N2)c1` (centres unmarked) [Compound 395], where the note is “recombinant human BACE-1 protein”, the concentration for half-maximal inhibition (IC50) was 1.5 µM.
In the case of `Cc1oc(-c2ccc(Cl)cc2)cc1C(=O)Nc1cc(C2(C)CCSC(N)=N2)ccc1F` (centres unmarked) [Compound 397], under setting [1], the IC50 is under 100 µM.
Take `CC1(c2cccc(OCC(=O)Nc3ccc(O)cc3)c2)CCSC(N)=N1` (centres unmarked) [Compound 402]: the concentration for half-maximal inhibition (IC50) under setting [1] is under 100 µM.
On to `CC1(c2cccc(NC(=S)Nc3ccc(Cl)cc3)c2)CCSC(N)=N1` (centres unmarked) [Compound 406], for which the concentration for half-maximal inhibition (IC50) under setting [1] was under 100 µM.
As to `CC1(c2cccc(NCCc3ccccc3)c2)CCSC(N)=N1` (centres unmarked) [Compound 409], the half-maximal inhibitory concentration (IC50) under setting [1] was under 100 µM.
The same measure, in the same setting: to `CC1(c2cccc(/C=C/C(=O)Nc3ccc(F)cc3)c2)CCSC(N)=N1` (centres unmarked) [Compound 415] belongs under 100 µM; to `CC1(c2cccc(NC(=O)c3ccc(NCc4cccnc4)cn3)c2)CCSC(N)=N1` (centres unmarked) [Compound 426], under 100 µM.
For `CC1(c2ccc(C(=O)NCCc3ccc(Cl)cc3)s2)CCSC(N)=N1` (centres unmarked) [Compound 442], the half-maximal inhibitory concentration (IC50) under setting [1] is under 100 µM.
As to `CC1(c2cccc(NCc3ccc4ccccc4c3)c2)CCSC(N)=N1` (centres unmarked) [Compound 443], the IC50 under setting [1] is under 100 µM.
With `CC1(c2cccc(C(=O)NCCc3ccc(Cl)cc3)c2)CCSC(N)=N1` (centres unmarked) [Compound 451], under setting [1], the IC50 is under 100 µM.
Still for that read-out and setting: to `CC1(c2cccc(OCC(=O)Nc3ccc4cnccc4c3)c2)CCSC(N)=N1` (centres unmarked) [Compound 454] belongs under 100 µM; to `CC1(c2cc(Br)cc(NC(=O)c3ccc(Cl)cc3)c2)CCSC(N)=N1` (centres unmarked) [Compound 463], under 100 µM; to `COc1ccc(C(=O)Nc2cccc(C3(C)CCSC(N)=N3)c2)c(OC)n1` (centres unmarked) [Compound 467], under 100 µM.
Same read-out and setting: to `CC1(c2cccc(NC(=O)c3ccc(F)c(O)c3)c2)CCSC(N)=N1` (centres unmarked) [Compound 469] belongs under 100 µM; to `CC1(c2cccc(NC(=O)c3ncc(Cl)cc3N)c2)CCSC(N)=N1` (centres unmarked) [Compound 472], under 100 µM; to `CC1(c2cccc(NC(=O)c3ccc(C(F)(F)F)cc3)c2)CCSC(N)=N1` (centres unmarked) [Compound 479], under 100 µM.
As to `CCOc1ccc(C(=O)Nc2cccc(C3(C)CCSC(N)=N3)c2)cc1` (centres unmarked) [Compound 480], the IC50 under setting [1] was under 100 µM.

The values are drawn from US8546380B2, “Aminodihydrothiazine derivatives” (Shionogi & Co., Ltd., priority 2005, dated 2013).
